# Laboratory results published in patent US11572590B2, “Methods for evaluating tumor cell spheroids using 3D microfluidic cell culture device” (Dana-Farber Cancer Institute, Inc., priority 2017, dated 2023).
# Like-named read-outs stand apart in the source and are kept apart here.
# Legend:
# Assay in all cases: SelectScreen Kinase Profiling, single point inhibition and IC50 for off-target kinases
# Type in all cases: biochemical
# off-target kinases [1] = biological target: off-target kinases (Homo sapiens, UniProt O95819); conditions: MAP4K4 (HGK), ATP Km app, ZLYTE
# Chain of off-target kinases (Homo sapiens, UniProt O95819) (O95819 whole entry): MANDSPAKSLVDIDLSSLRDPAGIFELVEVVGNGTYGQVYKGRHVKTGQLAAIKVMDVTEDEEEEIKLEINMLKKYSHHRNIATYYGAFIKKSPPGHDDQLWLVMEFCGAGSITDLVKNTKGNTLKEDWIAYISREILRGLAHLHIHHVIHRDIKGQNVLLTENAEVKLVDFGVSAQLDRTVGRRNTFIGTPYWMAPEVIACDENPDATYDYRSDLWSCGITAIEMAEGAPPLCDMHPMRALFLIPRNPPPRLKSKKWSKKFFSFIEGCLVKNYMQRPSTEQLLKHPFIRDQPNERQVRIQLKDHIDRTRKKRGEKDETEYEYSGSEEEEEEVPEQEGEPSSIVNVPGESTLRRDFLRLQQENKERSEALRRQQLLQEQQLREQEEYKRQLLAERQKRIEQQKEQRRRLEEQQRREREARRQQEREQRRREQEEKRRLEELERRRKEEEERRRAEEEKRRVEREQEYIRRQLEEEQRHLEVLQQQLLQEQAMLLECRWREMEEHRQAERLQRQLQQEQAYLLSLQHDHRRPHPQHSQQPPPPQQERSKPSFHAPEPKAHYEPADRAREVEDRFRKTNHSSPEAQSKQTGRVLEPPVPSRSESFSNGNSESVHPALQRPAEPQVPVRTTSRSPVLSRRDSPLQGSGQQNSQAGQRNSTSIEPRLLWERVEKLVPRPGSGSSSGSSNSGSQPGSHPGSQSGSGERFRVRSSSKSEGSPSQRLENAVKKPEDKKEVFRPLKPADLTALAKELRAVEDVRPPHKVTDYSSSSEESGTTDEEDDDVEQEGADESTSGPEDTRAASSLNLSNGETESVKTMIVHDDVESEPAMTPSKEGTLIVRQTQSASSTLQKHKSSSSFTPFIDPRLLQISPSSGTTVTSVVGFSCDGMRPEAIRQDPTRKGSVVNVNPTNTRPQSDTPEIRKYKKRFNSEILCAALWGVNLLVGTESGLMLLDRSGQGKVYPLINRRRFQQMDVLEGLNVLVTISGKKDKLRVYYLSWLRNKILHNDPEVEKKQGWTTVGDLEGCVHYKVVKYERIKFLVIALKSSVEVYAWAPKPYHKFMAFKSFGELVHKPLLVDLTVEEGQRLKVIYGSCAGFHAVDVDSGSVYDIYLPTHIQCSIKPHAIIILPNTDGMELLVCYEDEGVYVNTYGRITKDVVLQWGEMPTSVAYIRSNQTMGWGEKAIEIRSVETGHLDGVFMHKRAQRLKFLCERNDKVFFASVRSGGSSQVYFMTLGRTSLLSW
# off-target kinases [2] = biological target: off-target kinases (Homo sapiens, UniProt P07332); conditions: FES (FPS), ZLYTE, ATP Km app
# Chain of off-target kinases (Homo sapiens, UniProt P07332) (P07332 whole entry): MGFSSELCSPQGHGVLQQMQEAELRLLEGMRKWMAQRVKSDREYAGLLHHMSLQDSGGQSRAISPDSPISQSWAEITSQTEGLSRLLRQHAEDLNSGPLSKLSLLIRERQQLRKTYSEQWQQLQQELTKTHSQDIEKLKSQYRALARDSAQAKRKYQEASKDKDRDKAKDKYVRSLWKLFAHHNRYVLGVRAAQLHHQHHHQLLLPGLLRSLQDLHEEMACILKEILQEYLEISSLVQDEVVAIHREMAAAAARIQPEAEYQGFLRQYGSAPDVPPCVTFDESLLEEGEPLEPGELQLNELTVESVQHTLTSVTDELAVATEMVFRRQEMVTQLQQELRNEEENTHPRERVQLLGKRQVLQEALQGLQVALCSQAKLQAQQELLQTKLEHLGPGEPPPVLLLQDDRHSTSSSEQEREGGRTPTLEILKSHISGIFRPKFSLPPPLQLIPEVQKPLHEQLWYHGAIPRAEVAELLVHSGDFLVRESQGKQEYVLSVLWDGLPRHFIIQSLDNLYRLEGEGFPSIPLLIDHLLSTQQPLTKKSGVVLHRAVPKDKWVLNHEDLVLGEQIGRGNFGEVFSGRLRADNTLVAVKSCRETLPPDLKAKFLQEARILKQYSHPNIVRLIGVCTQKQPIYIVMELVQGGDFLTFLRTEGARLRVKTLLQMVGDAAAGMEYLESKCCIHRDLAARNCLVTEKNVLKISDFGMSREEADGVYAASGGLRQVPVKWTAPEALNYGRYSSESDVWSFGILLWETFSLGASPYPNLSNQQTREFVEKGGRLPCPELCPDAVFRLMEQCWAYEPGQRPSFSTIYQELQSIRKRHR
# off-target kinases [3] = biological target: off-target kinases (Homo sapiens, UniProt P07949, G691S); conditions: RET G691S, mutant y, LanthaScreen Binding
# Chain of off-target kinases (Homo sapiens, UniProt P07949, G691S) (P07949 29-1114 G691S): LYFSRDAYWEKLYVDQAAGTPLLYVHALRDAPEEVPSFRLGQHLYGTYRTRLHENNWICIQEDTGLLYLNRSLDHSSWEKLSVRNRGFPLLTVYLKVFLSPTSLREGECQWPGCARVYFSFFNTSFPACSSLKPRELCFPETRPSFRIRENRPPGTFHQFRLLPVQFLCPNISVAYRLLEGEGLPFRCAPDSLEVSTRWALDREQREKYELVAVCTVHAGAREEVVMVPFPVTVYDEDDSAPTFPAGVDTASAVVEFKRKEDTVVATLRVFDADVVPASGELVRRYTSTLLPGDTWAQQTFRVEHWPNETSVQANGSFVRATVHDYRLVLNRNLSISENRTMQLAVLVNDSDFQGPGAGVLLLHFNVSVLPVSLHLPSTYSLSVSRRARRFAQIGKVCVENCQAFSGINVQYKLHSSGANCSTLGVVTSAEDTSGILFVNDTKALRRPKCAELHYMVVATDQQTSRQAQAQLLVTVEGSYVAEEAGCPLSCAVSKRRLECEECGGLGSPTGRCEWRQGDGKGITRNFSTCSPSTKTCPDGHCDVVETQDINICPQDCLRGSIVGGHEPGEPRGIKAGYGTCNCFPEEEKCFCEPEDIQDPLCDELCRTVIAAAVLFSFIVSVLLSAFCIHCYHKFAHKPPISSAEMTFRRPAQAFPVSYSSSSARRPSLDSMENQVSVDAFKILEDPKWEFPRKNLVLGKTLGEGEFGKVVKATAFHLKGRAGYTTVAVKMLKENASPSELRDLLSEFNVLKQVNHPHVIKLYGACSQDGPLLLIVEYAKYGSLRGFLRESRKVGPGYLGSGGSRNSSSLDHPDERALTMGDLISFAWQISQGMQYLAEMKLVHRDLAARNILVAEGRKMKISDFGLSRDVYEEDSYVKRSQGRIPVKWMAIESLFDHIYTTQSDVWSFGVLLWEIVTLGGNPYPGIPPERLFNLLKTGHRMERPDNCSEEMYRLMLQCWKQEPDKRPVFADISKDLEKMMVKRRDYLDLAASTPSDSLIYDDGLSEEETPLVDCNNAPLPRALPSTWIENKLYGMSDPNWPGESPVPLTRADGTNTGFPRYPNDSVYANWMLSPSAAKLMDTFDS
# off-target kinases [4] = biological target: off-target kinases (Homo sapiens, UniProt P11309); conditions: PIM1, ZLYTE, ATP Km app
# Chain of off-target kinases (Homo sapiens, UniProt P11309) (P11309 whole entry): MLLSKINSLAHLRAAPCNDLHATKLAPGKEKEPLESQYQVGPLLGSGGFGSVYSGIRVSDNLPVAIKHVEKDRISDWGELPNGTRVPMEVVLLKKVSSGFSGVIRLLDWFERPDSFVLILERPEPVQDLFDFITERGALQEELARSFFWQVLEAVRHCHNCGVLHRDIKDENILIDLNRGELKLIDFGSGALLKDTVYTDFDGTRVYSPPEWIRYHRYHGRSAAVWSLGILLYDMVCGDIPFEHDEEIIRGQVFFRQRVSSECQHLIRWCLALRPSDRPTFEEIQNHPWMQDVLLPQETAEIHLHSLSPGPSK
# off-target kinases [5] = biological target: T1, off-target kinases (Homo sapiens, UniProt Q06418); conditions: TYRO3 (RSE), ZLYTE, ATP Km app
# T1 sequence (Q06418 41-890): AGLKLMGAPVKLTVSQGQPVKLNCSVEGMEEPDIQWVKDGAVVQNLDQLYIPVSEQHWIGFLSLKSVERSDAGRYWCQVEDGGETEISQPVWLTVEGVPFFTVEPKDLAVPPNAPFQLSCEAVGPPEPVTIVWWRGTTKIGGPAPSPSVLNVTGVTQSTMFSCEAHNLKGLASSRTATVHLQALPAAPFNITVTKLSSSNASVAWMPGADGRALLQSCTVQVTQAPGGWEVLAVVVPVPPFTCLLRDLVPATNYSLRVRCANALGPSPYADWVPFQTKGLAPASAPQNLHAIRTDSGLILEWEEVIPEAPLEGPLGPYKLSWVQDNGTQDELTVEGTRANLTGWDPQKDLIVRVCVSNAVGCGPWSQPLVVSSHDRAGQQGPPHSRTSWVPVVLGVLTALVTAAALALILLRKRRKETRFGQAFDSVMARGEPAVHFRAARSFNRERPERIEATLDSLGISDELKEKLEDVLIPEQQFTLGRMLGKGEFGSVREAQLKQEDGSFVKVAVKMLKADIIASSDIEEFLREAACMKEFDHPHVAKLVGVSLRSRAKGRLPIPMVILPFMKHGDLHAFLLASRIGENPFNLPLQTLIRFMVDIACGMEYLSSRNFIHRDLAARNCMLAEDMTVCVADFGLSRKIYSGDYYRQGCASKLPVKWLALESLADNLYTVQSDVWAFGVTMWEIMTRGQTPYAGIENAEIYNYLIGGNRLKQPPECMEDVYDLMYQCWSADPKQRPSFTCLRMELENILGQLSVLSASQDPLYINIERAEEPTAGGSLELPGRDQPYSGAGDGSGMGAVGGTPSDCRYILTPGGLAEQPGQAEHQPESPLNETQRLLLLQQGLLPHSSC
# off-target kinases [6] = biological target: off-target kinases (Homo sapiens, UniProt Q8N568); conditions: DCAMKL2 (DCK2), ZLYTE, ATP Km app
# Chain of off-target kinases (Homo sapiens, UniProt Q8N568) (Q8N568 whole entry): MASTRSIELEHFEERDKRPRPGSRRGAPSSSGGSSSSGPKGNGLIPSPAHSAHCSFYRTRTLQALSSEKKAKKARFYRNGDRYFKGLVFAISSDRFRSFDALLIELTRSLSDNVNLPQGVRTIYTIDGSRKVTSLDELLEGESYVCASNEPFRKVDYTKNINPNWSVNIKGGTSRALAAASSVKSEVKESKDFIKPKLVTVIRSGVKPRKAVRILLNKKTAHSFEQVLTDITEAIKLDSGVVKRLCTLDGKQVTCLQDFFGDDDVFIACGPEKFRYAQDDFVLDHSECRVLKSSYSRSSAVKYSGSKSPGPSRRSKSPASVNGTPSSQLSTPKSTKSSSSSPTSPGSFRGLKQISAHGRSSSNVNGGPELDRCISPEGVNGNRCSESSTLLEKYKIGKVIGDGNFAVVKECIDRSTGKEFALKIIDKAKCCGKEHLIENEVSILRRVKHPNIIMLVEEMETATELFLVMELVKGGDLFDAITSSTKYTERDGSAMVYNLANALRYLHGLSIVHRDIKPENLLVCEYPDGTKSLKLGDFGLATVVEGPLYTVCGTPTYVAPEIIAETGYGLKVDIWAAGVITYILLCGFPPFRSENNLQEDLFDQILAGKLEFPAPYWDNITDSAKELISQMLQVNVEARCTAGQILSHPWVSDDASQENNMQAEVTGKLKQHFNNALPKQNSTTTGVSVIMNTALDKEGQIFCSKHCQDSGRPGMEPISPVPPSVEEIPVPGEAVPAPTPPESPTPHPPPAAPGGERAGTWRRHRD
compound,measurement,setting,value
"N#Cc1cc(-c2ncnc(Nc3ccc(N4CCN(C5COC5)CC4)cc3)n2)ccc1OC1CCOCC1 [Compound 1, 5-(4-((4-(4-(oxetan-3-yl)piperazin-1-yl)phenyl)amino)-1,3,5-triazin-2-yl)-2-((tetrahydro-2H-pyran-4-yl)oxy)benzonitrile]",inhibition,off-target kinases [1]; read-out: % Inhibition 1,86%
same,inhibition,off-target kinases [1]; read-out: % Inhibition 2,86%
same,inhibition,off-target kinases [1]; read-out: % Inhibition Avg,86%
same,inhibition,off-target kinases [2]; read-out: % Inhibition 1,9%
same,inhibition,off-target kinases [2]; read-out: % Inhibition 2,7%
same,inhibition,off-target kinases [2]; read-out: % Inhibition Avg,8%
same,inhibition,off-target kinases [3]; read-out: % Inhibition 1,19%
same,inhibition,off-target kinases [3]; read-out: % Inhibition 2,18%
same,inhibition,off-target kinases [3]; read-out: % Inhibition Avg,18%
same,inhibition,off-target kinases [4]; read-out: % Inhibition 1,11%
same,inhibition,off-target kinases [4]; read-out: % Inhibition 2,3%
same,inhibition,off-target kinases [4]; read-out: % Inhibition Avg,7%
same,inhibition,off-target kinases [5]; read-out: % Inhibition 1,42%
same,inhibition,off-target kinases [5]; read-out: % Inhibition 2,39%
same,inhibition,off-target kinases [5]; read-out: % Inhibition Avg,41%
same,inhibition,off-target kinases [6]; read-out: % Inhibition 1,11%
same,inhibition,off-target kinases [6]; read-out: % Inhibition 2,3%
same,inhibition,off-target kinases [6]; read-out: % Inhibition Avg,7%
